Test results reported in paper PMC5632197 (Bioorganic & medicinal chemistry, 2017).
“Also recorded” adds a separate entry of the source. Read-outs that look alike come from different tables or passages of the source.

Legend:
T. brucei = settings: 7-day 50 mg/kg/day intraperitoneal dosage; cited from earlier work
CNS stage of HAT = settings: cited from earlier work
[1] = mice; cited from earlier work
[2] = target: T1, T. brucei AdoMetDC/prozyme (Trypanosoma brucei brucei, UniProt P50244); assay: T. brucei AdoMetDC enzyme activity assay; type: biochemical; settings: for fold less active against AdoMetDC compared to parent: compared to 1 (27 versus 11a), IC50 with PI
T1 sequence (P50244 86-370 limits assumed): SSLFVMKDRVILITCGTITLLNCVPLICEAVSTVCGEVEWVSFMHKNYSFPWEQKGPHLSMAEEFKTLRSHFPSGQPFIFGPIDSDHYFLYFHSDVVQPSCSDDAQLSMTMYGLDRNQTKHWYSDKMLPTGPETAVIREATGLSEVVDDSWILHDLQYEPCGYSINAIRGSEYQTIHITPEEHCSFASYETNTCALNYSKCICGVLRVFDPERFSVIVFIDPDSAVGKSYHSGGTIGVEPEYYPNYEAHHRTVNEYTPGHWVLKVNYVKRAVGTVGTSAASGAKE

[3] = test system: T. brucei Lister 427 bloodstream-form cells; assay: T. brucei cell growth inhibition assay; type: cell-based, Trypanosoma brucei brucei
[4] = AdoMetDC IC50 with PI, with 30 min pre-incubation, triplicate
[5] = AdoMetDC IC50 without PI, without pre-incubation, triplicate

IC50 [2, 4] [µM] | IC50 [2, 5] [µM] | Structure (SMILES) | also measured
 |  | CN(C/C=C\CN)C[C@H]1O[C@@H](n2cnc3c(N)ncnc32)[C@H](O)[C@@H]1O [Compound 1, 5'-(((Z)-4-amino-2-butenyl)methylamino)-5'-deoxyadenosine] | cure of mice infected with T. brucei (T. brucei): sterile cure; cure in mouse model of the CNS stage of HAT (CNS stage of HAT): not efficacious; also recorded: neither compound led to a cure; brain-to-blood ratio [1]: 1.7%
> 50 | > 50 | Cc1nc2c(N)ncnc2n1[C@@H]1O[C@H](CN(C)C/C=C\CNC(=O)OC(C)C)[C@@H](O)[C@H]1O [Compound 3c] | 
> 50 | > 50 | CCCC(=O)NC/C=C\CN(C)C[C@H]1O[C@@H](n2cnc3c(N)ncnc32)[C@H](O)[C@@H]1O [Compound 5c] | 
> 50 | > 50 | CC(=O)NC/C=C\CN(C)C[C@H]1O[C@@H](n2cnc3c(N)ncnc32)[C@H](OC(C)=O)[C@@H]1OC(C)=O [Compound 6a] | 
> 50 | > 50 | CCC(=O)NC/C=C\CN(C)C[C@H]1O[C@@H](n2cnc3c(N)ncnc32)[C@H](OC(C)=O)[C@@H]1OC(C)=O [Compound 6b] | 
> 50 | > 50 | CCCC(=O)NC/C=C\CN(C)C[C@H]1O[C@@H](n2cnc3c(N)ncnc32)[C@H](OC(C)=O)[C@@H]1OC(C)=O [Compound 6c] | 
> 50 | > 50 | Cc1nc2c(N)ncnc2n1[C@@H]1O[C@H](CN(C)C/C=C\CNC(=O)OC(C)(C)C)[C@H]2OC(C)(C)O[C@H]21 [Compound 10a] | 
 | > 50 | Cc1nc2c(N)ncnc2n1[C@@H]1O[C@H](CN(C/C=C\CNC(=O)OC(C)(C)C)C2CC2)[C@H]2OC(C)(C)O[C@H]21 [Compound 10c] | 
 |  | CN(C/C=C\CN)C[C@H]1O[C@@H](n2cnc3c(N)ncnc32)[C@@H]2OC(C)(C)O[C@@H]21 [Compound 11a] | fold less active against AdoMetDC compared to parent [2]: ~ 50 fold; fold reduced activity in T. b. brucei cell growth assay compared to 1 ([3]; EC50 compared to parent MDL 73811 (1)): ~ 50 fold
> 50 | > 50 | CC1(C)O[C@@H]2[C@H](O1)[C@@H](CN(C/C=C\CN)CCF)O[C@H]2n1cnc2c(N)ncnc21 [Compound 11b] | 
> 50 | > 50 | Cc1nc2c(N)ncnc2n1[C@@H]1O[C@H](CN(C/C=C\CN)C2CC2)[C@H]2OC(C)(C)O[C@H]21 [Compound 11c] | 
> 50 | > 50 | Cc1nc2c(N)ncnc2n1[C@@H]1O[C@H](CN(C/C=C\CN)CCO)[C@H]2OC(C)(C)O[C@H]21 [Compound 11d] | 
 | > 50 | NC/C=C\CN(CCF)C[C@H]1O[C@@H](n2cnc3c(N)ncnc32)[C@H](O)[C@@H]1O [Compound 12b] | 
> 50 | > 50 | Cc1nc2c(N)ncnc2n1[C@@H]1O[C@H](CN(C/C=C\CN)C2CC2)[C@@H](O)[C@H]1O [Compound 12c] | 
 |  | CN(CC=CCN)CC1OC(n2cnc3c(N)ncnc32)C2OC3(CCCCC3)OC12 (stereo not drawn) [Compound 22] | IC50 ([2]; read-out: AdoMetDC IC50, pre-incubation not stated): > 50 µM; EC50 ([3]; read-out: EC50 (T. b. brucei), 48 h cell viability, triplicate): > 25 µM
 | > 50 | CNc1ncnc2c1ncn2[C@@H]1O[C@H](CN(C)C/C=C\CN)[C@H]2OC(C)(C)O[C@H]21 [Compound 27] | fold less active against AdoMetDC compared to parent [2]: 3- to 4 fold
 |  | CNc1ncnc2c1ncn2[C@@H]1O[C@H](CN(C)C/C=C\CN)[C@@H](O)[C@H]1O [Compound 28a] | fold less active against AdoMetDC compared to parent [2]: 3- to 4 fold
 |  | CN(C/C=C\CN)C[C@H]1O[C@@H](n2cnc3c(N(C)C)ncnc32)[C@H](O)[C@@H]1O [Compound 28b] | fold less active against AdoMetDC compared to parent [2]: ~ 20 fold
 |  | CC(C)Nc1ncnc2c1ncn2[C@@H]1O[C@H](CN(C)C/C=C\CN)[C@@H](O)[C@H]1O [Compound 28c] | fold less active against AdoMetDC compared to parent [2]: 3- to 4 fold
 |  | CCOc1ncnc2c1ncn2[C@@H]1O[C@H](CN(C)C/C=C\CN)[C@@H](O)[C@H]1O [Compound 28d] | fold less active against AdoMetDC compared to parent [2]: ~16 fold
> 50 | > 50 | CN(C/C=C\CN)C[C@H]1O[C@@H](n2cnc3cncnc32)[C@@H]2OC(C)(C)O[C@@H]21 [Compound 30] | 
 |  | CCCCCCCCC(=O)Nc1ncnc2c1ncn2[C@@H]1O[C@H](CN(C)C/C=C\CN)[C@H]2OC(C)(C)O[C@H]21 [Compound 31] | fold more potent inhibition of AdoMetDC enzymatic activity than 11a ([2]; compared to comparator 11a): 3.5 fold; fold more potent inhibition of T.b. brucei proliferation than 11a ([3]; compared to comparator 11a): 2.6 fold
